Experimental data as given in paper PMC11571215, “Optimization of Antiproliferative Properties of Triimine Copper(II) Complexes” (Journal of Medicinal Chemistry, 2024).

Legend:
HCT116-DoxR 3D spheroids = assay: MTS cell viability assay in 3D tumor spheroids; format: cell-based, human; details: spheroids with 6 days of growth, 48 h of exposure
Protocol: The research on tumor microenvironment (TME) has recently been gaining attention due to its important role in tumor growth, progression, and response to therapy.[57]−[60] Because of this, the development of 3D cancer models that mimic the interactions in the TME and the tumor structure and complexity is of great relevance to cancer research and drug development. […] The MTS assay was performed inHCT116-DoxR 3D spheroids with 6 days of growth (Figure S15 in ESI), followed by exposure to the complexes for 48 h. The results of cell viabilities and respective relative IC50 values calculated are provided in Figure 4 and Table 5, respectively.
HCT116-DoxR cells were seeded at 5 × 10^4 cells/mL in super low Attachment 96-well plates (NunclonSphera U-Shaped-Bottom Microplate, Thermo Fisher Scientific, Waltham, MA, USA) and incubated at 37 °C in a humidified atmosphere with 5% (v/v) CO2, to allow spheroids formation and growth.[60],[105] To perform the cell viability study, two methods were used: the MTS assay and the CellTox assay.
For MTS assay, HCT116DoxR spheroids grown for 6 to 8 days were used. […] The spheroids were further incubated for 4 h and subsequently transferred the medium to a 96-well flat-bottom plate for analysis using the Tecan Infinite M200 microplate reader (Tecan, Männedorf, Switzerland).

[1] = Stability in solution by UV-vis spectrophotometry; format: physicochemical; details: c = 25 μM, spectra every 4 h for 72 h
Protocol: The stability of Cu1a-d and Cu2a-d was assessed using a spectrophotometric method. Absorption spectra of the Cu(II) complexes were collected every 4 h for 72 h in DMSO and phosphate-buffered saline (PBS) solutions (c = 25 μM) (see Figure S6 and Table S9 in ESI). The diluted solutions in a water-based medium were prepared from concentrated (50 mM) stock solutions in DMSO. […] In contrast, Cu(II) complexes with dtpy-based ligands (Cu2a–d) decomposed within a few minutes in DMSO, showing UV–vis spectra almost overlapping with those of the free ligands (Figure S7). […] In PBS, compounds Cu2a–d tended to aggregate rapidly due to the release of the organic ligand, which is insoluble in water.
Infrared spectra were performed with the KBr technique on a Nicolet iS5 FT-IR spectrophotometer in the range of 4000–400 cm^–1. Elemental analyses (C, H, N) were recorded on a Perkin–Elemer CHN–2400 analyzer. HR-ESI-MS analyses were performed on a maXis Impact Q-TOF mass spectrometer (Bruker Daltonics) or a Xevo G2 Q-TOF mass spectrometer (Waters Corporation, USA), both with an ESI ion source operating in positive-ion mode. Samples were diluted in LC-MS grade acetonitrile. The accurate mass and composition for the molecular ion adducts were calculated using Data Analysis 4.1 software (Bruker, Germany) or MassLynx software (Waters). […] The eluted compounds were monitored in the range 190–400 nm. […]

calf-thymus DNA (ctDNA) [2] = assay: UV-vis absorption titration with ctDNA; format: binding; details: hyperchromic effect at ∼350 nm
Protocol: For both Cu(II) complexes, the addition of DNA results in a gradual increase in the absorption intensity of the band at ∼350 nm, while the band position remains the same (Figure 14).
These values fall in the range reported previously for related Cu(II) complex with 4′-((naphthalen-2-yl)methoxy)-2,2′:6′,2″-terpyridine[21] that was proposed as an “outside binder”.
Absorption titration experiments were conducted by maintaining the complex concentration constant (25 μM) and varying the concentration of ctDNA (0–100 μM). Blank ctDNA samples were used as a reference.

calf-thymus DNA (ctDNA) [3] = assay: Ethidium bromide displacement assay; format: binding; details: for Ksv (Stern-Volmer constant): ctDNA-EB adduct in PBS buffer, EB 50 μM
Excerpt: Compounds that intercalate between DNA base pairs equally or more strongly than EB replace it from the adduct ctDNA-EB, which results in a noticeable decrease or quenching of the fluorescence emission. […] For both Cu1a and Cu1b, the decrease in the fluorescence intensity of ctDNA-EB with increasing complex concentrations fulfills the linear Stern–Volmer equation (eq 3)[90]: [drawing 6] 3
The apparent binding constants (Kapp) are estimated using eq 4: [drawing 7] 4 (where KEB = 1.0 × 10^7 M^–1, [EB] is the EB concentration (50 μM), [Q50] is the complex concentration at 50% reduction of EB fluorescence intensity, estimated based on the linear Stern–Volmer plot for I^0/I = 2). Kapp is equal to 1.75 × 10^5 M^–1 for Cu1a and 2.35 × 10^6 M^–1 for Cu1b. […] Nevertheless, both Cu(II) complexes show rather moderate ability to replace EB from the adduct with ctDNA.[21]
Ethidium bromide (EB) and calf-thymus DNA (ctDNA) were purchased from Sigma-Aldrich and Thermo Fisher Scientific, respectively. Prior to experiments, a solution containing 10 mg/mL of ctDNA in DNase-free and RNase-free distilled, deionized water was spectroscopically monitored at 260 nm and at 280 nm to determine the concentration and check the purity.
The ethidium bromide (EB) fluorescence displacement assay was carried out using a Hitachi F-7000 spectrofluorometer. An equimolar amount (50 μM) of EB solution was added to ctDNA solution at room temperature, followed by 2 h incubation in the dark. The compound was then titrated into the EB–ctDNA mixture, well mixed, and allowed to stand for 30 min. The concentrations of the complexes varied from 0 to 40 μM.

[Cl][Cu-3]12([Cl])[n+]3ccccc3-c3cc(-c4cccc5ccccc45)cc([n+]31)-c1cccc[n+]12 [Cu1a]
IC50 (HCT116-DoxR 3D spheroids): 10.1 ± 0.22 µM | stability/solubility in PBS [1]: no solubility issues were observed | mode of interaction with DNA (calf-thymus DNA (ctDNA) [2]): nonintercalative interactions with DNA, most likely via groove binding | Ksv (Stern-Volmer constant) (calf-thymus DNA (ctDNA) [3]): 3.8 × 10^3 M^–1

[Cl][Cu-3]12([Cl])[n+]3ccccc3-c3cc(-c4ccc5ccccc5c4)cc([n+]31)-c1cccc[n+]12 [Cu1b]
IC50 (HCT116-DoxR 3D spheroids): 33.9 ± 0.4 µM | stability/solubility in PBS [1]: no solubility issues were observed | mode of interaction with DNA (calf-thymus DNA (ctDNA) [2]): nonintercalative interactions with DNA, most likely via groove binding | Ksv (Stern-Volmer constant) (calf-thymus DNA (ctDNA) [3]): 4.7 × 10^3 M^–1 | apparent binding constant Kapp (calf-thymus DNA (ctDNA) [3]; eq 4, KEB = 1.0 × 10^7 M^–1, [EB] 50 μM): 2.35 × 10^6 M^–1
